Data on 21 molecules can be found in patent US20240368150A1 (Hoffmann-La Roche Inc., priority 2021, published 2024).

Experiment [1] concerns primary human T-cells. Description: Proliferation assay after 5 days (CellTiter-Glo, CD3 stimulation; PBS counter screen). Format: cell-based. To be noted: CD3 stimulation; for Emax: read-out: Emax proliferation (% activation); for pEC50: primary human T-cells, CellTiter-Glo after 5 days, EC50 of fitted sigmoidal curve, read-out: Tcell Proliferation CD3 EC50. The essentials:
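Proliferation is measured 5 days post-treatment as ATP-dependent luminescence. Flags mark compounds that activated unstimulated cells or harmed viability.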
On the technique in general: Cellular ATP, detected with luciferase, serves as a proxy for viable cell number.

Experiment [2] deals with primary human T-cells.
The mark [3] stands for this setting: Homo sapiens, T-cell, 120 h, 5 days, normalized to reference compound A1 as stimulator control = 100%, DMSO neutral control.

pEC50: −log10 of the molar value. Where two headings read alike, the source gives them in different places.

On to `COC(F)(c1nc(-c2cc3c(cc2F)S(=O)(=O)C[C@H](N)C(=O)N3Cc2ccc(F)cc2)no1)C(F)(F)F` (stereo partly drawn) [Example 513, (3R)-3-amino-8-fluoro-5-[(4-fluorophenyl)methyl]-1,1-dioxo-7-[5-(1,2,2,2-tetrafluoro-1-methoxy-ethyl)-1,2,4-oxadiazol-3-yl]-2,3-dihydro-1λ^6,5-benzothiazepin-4-one], for which the Emax in the experiment with primary human T-cells [1] (setting [3]) came to 157%. Also, the pEC50 is 6.54 in the experiment with primary human T-cells [1] (Homo sapiens, T-cell, 120 h) and 6.51 with primary human T-cells [2].

Turning to `CC(CC(F)(F)F)Nc1nnc(-c2cc3c(cc2F)S(=O)(=O)C[C@H](N)C(=O)N3Cc2ccc(Cl)cc2)o1` (stereo partly drawn) [Example 506, (3R)-3-amino-5-[(4-chlorophenyl)methyl]-8-fluoro-1,1-dioxo-7-[5-[(3,3,3-trifluoro-1-methyl-propyl)amino]-1,3,4-oxadiazol-2-yl]-2,3-dihydro-1λ^6.5-benzothiazepin-4-one], in the experiment on primary human T-cells [1] (setting [3]), the Emax turned out to be 88%. Moreover, the pEC50 in the experiment on primary human T-cells [1] (Homo sapiens, T-cell, 120 h) was 6.61; with primary human T-cells [2], 5.88.

Consider `CC(C)(C)NC(=O)c1nc(-c2ccc3c(c2)N(Cc2ccc(OC(F)(F)F)cc2)C(=O)[C@@H](N)CS3(=O)=O)no1` [Example 355, 3-[(3R)-3-amino-1,1,4-trioxo-5-[[4-(trifluoromethoxy)phenyl]methyl]-2,3-dihydro-1λ^6,5-benzothiazepin-7-yl]-N-tert-butyl-1,2,4-oxadiazole-5-carboxamide], for which, in the experiment on primary human T-cells [1] (setting [3]), the Emax came to 65%. The pEC50 is 5.79 in the experiment on primary human T-cells [1] (Homo sapiens, T-cell, 120 h) and 5.22 with primary human T-cells [2].

For `CC(C)(CN)c1nnc(-c2cc3c(cc2F)S(=O)(=O)C[C@H](N)C(=O)N3Cc2ccc(Cl)cc2)o1` [Example 111, (3R)-3-amino-7-[5-(2-amino-1,1-dimethyl-ethyl)-1,3,4-oxadiazol-2-yl]-5-[(4-chlorophenyl)methyl]-8-fluoro-1,1-dioxo-2,3-dihydro-1λ^6,5-benzothiazepin-4-one], the Emax in the experiment on primary human T-cells [1] (setting [3]) was found to be 97%. Moreover, the pEC50 with primary human T-cells [1] (Homo sapiens, T-cell, 120 h) was 6.25; with primary human T-cells [2], 5.50.

For the molecule `COc1ccc(CN2C(=O)[C@@H](N)CS(=O)(=O)c3cc(F)c(-c4nnc(C(C)(C)C)o4)cc32)cc1` [Example 230], in the experiment with primary human T-cells [1] (setting [3]), the Emax came out at 119%. In addition, the pEC50 in the experiment on primary human T-cells [1] (Homo sapiens, T-cell, 120 h) is 7.05; in the experiment on primary human T-cells [2], 6.98.

As for `N[C@H]1CS(=O)(=O)c2ccc(-c3nnc(N4CC5(CCCO5)C4)o3)cc2N(Cc2ccc(Cl)cc2)C1=O` [Example 404, (3R)-3-amino-5-[(4-chlorophenyl)methyl]-7-[5-(5-oxa-2-azaspiro[3.4]octan-2-yl)-1,3,4-oxadiazol-2-yl]-1,1-dioxo-2,3-dihydro-1λ^6,5-benzothiazepin-4-one], the Emax with primary human T-cells [1] (setting [3]) stood at 101%. For the same molecule, the pEC50 in the experiment on primary human T-cells [1] (Homo sapiens, T-cell, 120 h) is 5.63; in the experiment on primary human T-cells [2] it was 5.09.

Turning to `CC(C)(C)c1nc(-c2cc3c(cc2F)[S+]([O-])C[C@H](N)C(=O)N3Cc2ccc(Cl)cc2)no1` (single isomer, unassigned; epimer a) [Example 340], the Emax with primary human T-cells [1] (setting [3]) was found to be 121%. Further, the pEC50 was 5.87 with primary human T-cells [1] and 5.51 in the experiment on primary human T-cells [2].

For `CC1(c2nc(-c3cc4c(cc3F)[S+]([O-])C[C@H](N)C(=O)N4Cc3ccc(Cl)cc3)no2)CC[N+]([O-])(CC(F)(F)F)CC1` (stereo partly drawn) [Example 308, (3R)-3-amino-5-[(4-chlorophenyl)methyl]-8-fluoro-7-[5-[4-methyl-1-oxido-1-(2,2,2-trifluoroethyl)piperidin-1-ium-4-yl]-1,2,4-oxadiazol-3-yl]-1-oxo-2,3-dihydro-1λ^4,5-benzothiazepin-4-one], the Emax with primary human T-cells [1] (setting [3]) is 61%. Also, the pEC50 was 5.12 in the experiment on primary human T-cells [1] (Homo sapiens, T-cell, 120 h) and under 5.00 in the experiment with primary human T-cells [2].

With `Cc1cccc(F)c1-c1nnc(-c2cc3c(cc2F)S(=O)(=O)C[C@H](N)C(=O)N3Cc2ccc(Cl)cc2)o1` [Example 100, (3R)-3-amino-5-[(4-chlorophenyl)methyl]-8-fluoro-7-[5-(2-fluoro-6-methyl-phenyl)-1,3,4-oxadiazol-2-yl]-1,1-dioxo-2,3-dihydro-1λ^6,5-benzothiazepin-4-one], the Emax in the experiment on primary human T-cells [1] (setting [3]) was 89%. In addition, the pEC50 in the experiment on primary human T-cells [1] (Homo sapiens, T-cell, 120 h) was 7.30; in the experiment on primary human T-cells [2] it was 6.31.

Consider `COC(=O)N1CC2(c3nnc(-c4cc5c(cc4F)S(=O)(=O)C[C@H](N)C(=O)N5Cc4ccc(Cl)cc4)o3)CC1CO2` (stereo partly drawn) [Example 120, methyl 1-[5-[(3R)-3-amino-5-[(4-chlorophenyl)methyl]-8-fluoro-1,1,4-trioxo-2,3-dihydro-1λ^6,5-benzothiazepin-7-yl]-1,3,4-oxadiazol-2-yl]-2-oxa-5-azabicyclo[2.2.1]heptane-5-carboxylate], for which, in the experiment on primary human T-cells [1] (setting [3]), the Emax turned out to be 96%. For the same molecule, the pEC50 was 6.89 in the experiment on primary human T-cells [1] (Homo sapiens, T-cell, 120 h) and 6.59 in the experiment on primary human T-cells [2].

As for `COc1ccc(CN2C(=O)[C@@H](N)CS(=O)(=O)c3cc(F)c(-c4nnc(C(C)(C)C)o4)cc32)nc1` [Example 228, (3R)-3-amino-7-(5-tert-butyl-1,3,4-oxadiazol-2-yl)-8-fluoro-5-[(5-methoxy-2-pyridyl)methyl]-1,1-dioxo-2,3-dihydro-1λ^6,5-benzothiazepin-4-one], in the experiment with primary human T-cells [1] (setting [3]), the Emax stood at 112%. Besides, the pEC50 with primary human T-cells [1] (Homo sapiens, T-cell, 120 h) was 5.76; in the experiment on primary human T-cells [2], 5.28.

As for `N[C@H]1CS(=O)(=O)c2cc(F)c(-c3noc(NC4CCC4)n3)cc2N(Cc2ccc(Cl)cc2)C1=O` [Example 195, (3R)-3-amino-5-[(4-chlorophenyl)methyl]-7-[5-(cyclobutylamino)-1,2,4-oxadiazol-3-yl]-8-fluoro-1,1-dioxo-2,3-dihydro-1λ^6,5-benzothiazepin-4-one], the Emax in the experiment with primary human T-cells [1] (setting [3]) turned out to be 108%. Further, the pEC50 in the experiment on primary human T-cells [1] (Homo sapiens, T-cell, 120 h) was 6.98; in the experiment on primary human T-cells [2], 6.78.

On to `CC(C)(C)c1nnc(-c2cc3c(cc2F)[S+]([O-])C[C@H](N)C(=O)N3Cc2ccc(OC(F)(F)F)cc2)o1` (stereo partly drawn) [Example 453], for which, in the experiment with primary human T-cells [1] (5 days, normalized to reference compound A1 as stimulator control = 100%, DMSO neutral control), the “Emax proliferation (% activation)” value came to 136 % activation. In addition, the figures for the pEC50 in the experiment on primary human T-cells [1] and with primary human T-cells [2] were 6.35 and 6.75, respectively.

On to `CC(C)(O)c1nnc(-c2cc3c(cc2F)S(=O)(=O)C[C@H](N)C(=O)N3Cc2ccc(Cl)cc2)o1` [Example 119, (3R)-3-amino-5-[(4-chlorophenyl)methyl]-8-fluoro-7-[5-(1-hydroxy-1-methyl-ethyl)-1,3,4-oxadiazol-2-yl]-1,1-dioxo-2,3-dihydro-1λ^6,5-benzothiazepin-4-one], for which, in the experiment on primary human T-cells [1] (setting [3]), the Emax turned out to be 97%. For the same molecule, the pEC50 is 6.14 in the experiment on primary human T-cells [1] (Homo sapiens, T-cell, 120 h) and 5.92 with primary human T-cells [2].

With `CC(C#N)c1nnc(-c2cc3c(cc2F)S(=O)(=O)C[C@H](N)C(=O)N3Cc2ccc(Cl)cc2)o1` (stereo partly drawn) [Example 103, 2-[5-[(3R)-3-amino-5-[(4-chlorophenyl)methyl]-8-fluoro-1,1,4-trioxo-2,3-dihydro-1λ^6,5-benzothiazepin-7-yl]-1,3,4-oxadiazol-2-yl]propanenitrile], the Emax in the experiment on primary human T-cells [1] (setting [3]) worked out at 102%. For the same molecule, the pEC50 in the experiment on primary human T-cells [1] (Homo sapiens, T-cell, 120 h) was 6.67; in the experiment on primary human T-cells [2] it was 6.23.

With `COc1ccc(CN2C(=O)[C@@H](N)CS(=O)(=O)c3cc(F)c(-c4nnc(C(C)(C)C)o4)cc32)cn1` [Example 225, (3R)-3-amino-7-(5-tert-butyl-1,3,4-oxadiazol-2-yl)-8-fluoro-5-[(6-methoxy-3-pyridyl)methyl]-1,1-dioxo-2,3-dihydro-1λ^6,5-benzothiazepin-4-one], the Emax in the experiment on primary human T-cells [1] (setting [3]) is 109%. The pEC50 in the experiment on primary human T-cells [1] (Homo sapiens, T-cell, 120 h) was 5.72; in the experiment with primary human T-cells [2], 5.36.

With `CC(C)(C)c1nnc(-c2ccc3c(c2)N(Cc2ccc(OC4CC4)cc2)C(=O)[C@@H](N)CS3(=O)=O)o1` [Example 435], in the experiment on primary human T-cells [1] (setting [3]), the Emax was found to be 117%. For the same molecule, the pEC50 in the experiment on primary human T-cells [1] (Homo sapiens, T-cell, 120 h) is 6.17; in the experiment with primary human T-cells [2], 5.48.

Turning to `N#CC1(c2nnc(-c3cc4c(cc3F)S(=O)(=O)C[C@H](N)C(=O)N4Cc3ccc(Cl)cc3)o2)CC1` [Example 118, 1-[5-[(3R)-3-amino-5-[(4-chlorophenyl)methyl]-8-fluoro-1,1,4-trioxo-2,3-dihydro-1λ^6,5-benzothiazepin-7-yl]-1,3,4-oxadiazol-2-yl]cyclopropanecarbonitrile], in the experiment on primary human T-cells [1] (setting [3]), the Emax was 99%. Further, the pEC50 is 6.17 in the experiment with primary human T-cells [1] (Homo sapiens, T-cell, 120 h) and 6.64 with primary human T-cells [2].

Consider `CCN1CC(c2nnc(-c3cc4c(cc3F)S(=O)(=O)C[C@H](N)C(=O)N4Cc3ccc(Cl)cc3)o2)CC(F)(F)C1` (stereo partly drawn) [Example 150, (3R)-3-amino-5-[(4-chlorophenyl)methyl]-7-[5-(1-ethyl-5,5-difluoro-3-piperidyl)-1,3,4-oxadiazol-2-yl]-8-fluoro-1,1-dioxo-2,3-dihydro-1λ^6,5-benzothiazepin-4-one], for which the Emax in the experiment with primary human T-cells [1] (setting [3]) stood at 128%. For the same molecule, the pEC50 in the experiment with primary human T-cells [1] (Homo sapiens, T-cell, 120 h) was 7.12; in the experiment on primary human T-cells [2], 6.45.

On to `Cc1nc(F)ccc1-c1nc(-c2cc3c(cc2F)S(=O)(=O)C[C@H](N)C(=O)N3Cc2ccc(Cl)cc2)no1` [Example 312, (3R)-3-amino-5-[(4-chlorophenyl)methyl]-8-fluoro-7-[5-(6-fluoro-2-methyl-3-pyridyl)-1,2,4-oxadiazol-3-yl]-1,1-dioxo-2,3-dihydro-1λ^6,5-benzothiazepin-4-one], for which the Emax in the experiment on primary human T-cells [1] (setting [3]) was determined as 163%. The pEC50 was 7.09 with primary human T-cells [1] (Homo sapiens, T-cell, 120 h) and 6.65 with primary human T-cells [2].

In the case of `CC(C)c1nnc(-c2cc3c(cc2F)S(=O)(=O)C[C@H](N)C(=O)N3Cc2ccc(Cl)cc2)o1` [Example 84, (3R)-3-Amino-5-[(4-chlorophenyl)methyl]-8-fluoro-7-(5-isopropyl-1,3,4-oxadiazol-2-yl)-1,1-dioxo-2,3-dihydro-1λ^6,5-benzothiazepin-4-one], the Emax in the experiment with primary human T-cells [1] (setting [3]) turned out to be 191%. For the same molecule, the pEC50 was 6.64 with primary human T-cells [1] (Homo sapiens, T-cell, 120 h) and 6.35 in the experiment on primary human T-cells [2].
